Assay [1] relates to Math1-cre:SmoM2 cerebellar GNPs. The assay is described as follows: Math1-cre:SmoM2 cerebellar GNP proliferation. Format: cell-based, mice. The settings on record: for Proliferation of SmoM2-expressing GNPs (histone H3 phosphorylation): HPIs 10 μM, cyclopamine 5 μM, 24 h. The method, then:
Analysis of Math1-cre:SmoM2 cerebellar GNP proliferation. To generate Math1-cre:SmoM2 tumors (11), a Math1-cre driver was used to conditionally express an activated Smo (SmoM2) allele. The Gt(ROSA)26Sortm1 (Smo/EYFP)Amc/J) mouse line was obtained from Jackson Laboratory (Bar Harbor, ME). […] Primary cultures from Math1-cre:SmoM2 tumors were established by triturating tumor tissue and plating the dissociated cells onto poly-D-ornithine-coated plates in DMEM-F-12 with N2 supplement, 25 mM KCI, and antibiotics. After culturing the cells for 24 h, they were treated with individual HPIs ([…]) for 24 h. Cell proliferation was then quantified by immunocytochemistry, and the expression of cyclin D1 and Gli1 were assessed by immunoblotting and RT-PCR, respectively. For immunocytochemistry, the primary cultures were fixed in 4% paraformaldehyde for 30 min at room temperature. […] Immunofluorescently stained cultures were imaged using a Nikon Eclipse E600 microscope equipped with a 20×objective. Approximately 30,000 cells were analyzed for each experimental condition. To detect proteins by immunoblotting, non-denaturing lysates were prepared from Math1-cre:SmoM2 cultures using lysate buffer (50 mM HEPES, pH 7.4, containing 150 mM NaCl, 1 mM EDTA, 2.5 mM EGTA, 0.1% Triton X-100, 10% glycerol, and 1 mM DTT), resolved on a 10% SDS-PAGE gel, and transferred onto a PVDF membrane. The membrane was incubated overnight at 4° C. with anti-cyclin D1 (Ab-3, Neomarkers; 1:1,000 dilution) or anti-β-tubulin (T4026, Sigma; 1:5,000 dilution) antibodies. […] For RT-PCR analyses, total RNA from Math1-cre:SmoM2cultures was extracted with TRIzol (Invitrogen) according to the manufacturer's protocol. The RNA was purified further […] with an RNeasy kit (Qiagen), and then reverse-transcribed with an Advantage RT-for-PCR Kit (Clontech) and random hexamer primers. […] Typical PCR conditions were as follows: an initial denaturation at 95° C. for 1 min followed by 28 cycles of denaturation at 94° C. for 45 sec, annealing at 60° C. for 45 sec, extension at 70° C. for 2 min, and a final extension at 72° C. for 7 min. The resulting PCR products were analyzed on 2% agarose gels.

Assay [2] concerns FLAG-Gli2. In words: Analysis of Gli2 processing and Shh-dependent Gli2 stabilization. Format: cell-based, mouse. To be noted: Shh-EGFP FLAG-Gli2 cells, absence and presence of Shh, 24 h. The method, then:
Analysis of Gli2 processing and Shh-dependent Gli2 stabilization. […] Each compound incubation was also done in the absence and presence of 5% Shh-N-conditioned medium, and the cells were maintained under these conditions for 24 h. The cells were subsequently solubilized in lysis buffer (100 μL/well; 50 mM Tris-HCl, pH 7.4, 1% Triton X-100, 250 mM NaCl, 2 mM EDTA, 20 mM NaF, 2 mM Na3VO4, 2 mM 2-mercaptoethanol, EDTA-free protease inhibitor cocktail (Roche)). This suspension was transferred to a 1.5-mL centrifuge tube and incubated on ice for 30 min, with vortexing every 5 min. The cell lysates were then centrifuged at 20,000×g at 4° C. for 20 min. Supernatants were removed, and a BCA protein assay was performed to quantify protein levels. Mouse anti-FLAG M2 agarose slurry (20 μL, Sigma) was pelleted by centrifugation and incubated with 800 ng of protein from each condition for 90 min at 4° C. and then washed three times with 1 mL of wash buffer (75 mM Tris-HCl buffer, pH 8.0 containing 225 mM NaCl, 0.5% Triton X-100) and centrifuged at 2,300×g at 4° C. The agarose beads were suspended in 30 μL of 1×SDS-PAGE sample buffer (50 mM Tris-HCl, pH 6.8 containing 10% glycerol, 2% SDS, 50 mM DTT, 200 mM 2-mercaptoethanol, and 0.001% bromophenol blue), and the mixture was boiled for 5 min. The samples were then resolved on a 4-12% Bis-Tris Criterion XT gel and transferred to a PVDF membrane. The membrane was dehydrated with methanol, and then probed with rabbit anti-FLAG antibody (Sigma; 1:1,000 dilution in blocking buffer (PBS 21 containing 3% non-fat dried milk and 0.01% Tween 20)) for 90 min. […] Blots were washed 4×3 min in PBS, and the immunoreactive bands were detected with a SuperSignal West Dura kit and a ChemiDoc XRS system. Protein bands were quantified using Quantity One software (Bio-Rad). For each experiment, boxes of equal size were drawn around the FLAG-Gli2 and FLAG-Gli2R bands. Band intensities were then normalized to the average intensity for all bands in a given experiment. The results from all experiments were averaged and normalized relative to the basal level of FLAG-Gli2 (DMSO treatment without Shh-N-conditioned medium).

Assay [3] concerns CREB. The assay is described as follows: PKA-mediated CREB phosphorylation assay. Format: cell-based. To be noted: NIH-3T3 cells; 15 μM HPI-1, 20 μM HPI-2. The method, then: PKA-mediated CREB phosphorylation assay. […] The cells were cultured for an additional 2 h and then lysed in hot 2×SDS-PAGE sample buffer (100 mM Tris, pH 6.8, 200 mM DTT, 0.02% bromophenol blue, 16 20 mM NaF, 2 mM sodium orthovandate, 4% SDS, and 20% glycerol). After the samples were boiled for 5 min, they were resolved on 4-12% Criterion XT gels (Bio-Rad) and transferred to PVDF membranes (Millipore). The membranes were blocked overnight in TBST buffer (Trisbuffered saline with 0.1% Tween 20) containing 5% bovine serum albumin and then probed with either anti-phosphorylated CREB (87G3, Cell Signaling Technology; 1:1,000 dilution) or CREB (48H2, Cell Signaling Technology, 1:1,000 dilution) antibodies.

The target in assay [4] is Smo (Mus musculus, UniProt P56726). The assay is described as follows: FRET assay for Smo multimerization (Smo-CFP/Smo-YFP). Also noted: expressed in transfected cells; host or cells: NIH-3T3. It counts as cell-based, murine. To be noted: 10 μM HPIs; for Shh-induced fold change in Smo-CFP/Smo-YFP FRET: 10 μM cyclopamine, 500 nM SAG. Here is the method:
FRET assay for Smo multimerization. […] The cells were washed with PBS buffer, fixed with 4% paraformaldehyde for 20 min, and mounted on slides in 80% glycerol. Fluorescence signals were acquired with the 100× objective of a Zeiss LSM510 confocal microscope with the following conditions: CFP was excited by 458-nm light and the emission was collected through a BP 480-520-nm filter. YFP was excited by 514-nm light and the emission was collected through a BP 535-590-nm filter. The CFP signal was obtained before and after photobleaching YFP(CFPBP and CFPAP, respectively) using the full power of the 514-nm laser line for 1-2 min at the top half of each cell, leaving the bottom half unbleached as an internal control. The CFP fluorescence intensity was analyzed using Metamorph software (Universal Imaging Corp.), and the energy transfer efficiency was calculated using the formula: FRET %=((CFPAP−CFPBP)/CFPAP)×100. Photobleached areas in 11-19 cells were analyzed for each experimental condition.

Sequence of Smo (P56726 33-793): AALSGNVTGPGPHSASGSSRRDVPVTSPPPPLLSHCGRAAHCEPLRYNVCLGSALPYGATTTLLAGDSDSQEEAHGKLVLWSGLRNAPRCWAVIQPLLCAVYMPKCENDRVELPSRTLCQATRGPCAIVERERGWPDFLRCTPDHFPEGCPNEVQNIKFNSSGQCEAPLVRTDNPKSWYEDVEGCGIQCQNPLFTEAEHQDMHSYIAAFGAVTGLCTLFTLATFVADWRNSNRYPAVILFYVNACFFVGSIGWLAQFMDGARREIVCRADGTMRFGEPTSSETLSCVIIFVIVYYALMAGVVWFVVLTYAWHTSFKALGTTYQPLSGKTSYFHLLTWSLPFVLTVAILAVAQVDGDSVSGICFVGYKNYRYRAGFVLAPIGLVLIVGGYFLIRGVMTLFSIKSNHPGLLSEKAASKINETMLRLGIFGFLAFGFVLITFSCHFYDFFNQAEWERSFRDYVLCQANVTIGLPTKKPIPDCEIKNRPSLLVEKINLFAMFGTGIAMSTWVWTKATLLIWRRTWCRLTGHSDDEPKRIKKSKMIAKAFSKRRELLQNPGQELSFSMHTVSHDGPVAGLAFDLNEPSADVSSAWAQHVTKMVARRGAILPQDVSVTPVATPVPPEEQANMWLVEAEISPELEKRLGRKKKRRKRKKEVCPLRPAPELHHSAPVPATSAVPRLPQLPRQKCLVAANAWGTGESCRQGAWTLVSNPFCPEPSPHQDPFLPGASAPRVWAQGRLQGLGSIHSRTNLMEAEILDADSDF
Sequence of Smo (P56726 33-793): as above

In the case of `COCCOC(=O)C1=C(C)NC2=C(C(=O)CC(c3ccccc3OC)C2)C1c1cccc(O)c1` (mixture of isomers) [Compound 8, 4-(3-Hydroxy-phenyl)-7-(2-methoxy-phenyl)-2-methyl-5-oxo-1,4,5,6,7,8-hexahydro-quinoline-3-carboxylic acid 2-methoxy-ethyl ester], in assay [1], the “Cellular levels of cyclin D1 protein and Gli1 transcripts in GNPs” value was “reduced cellular levels of cyclin D1 protein and Gli1 transcripts”; the “Proliferation of SmoM2-expressing GNPs (histone H3 phosphorylation)” value (from here on “Proliferation of SmoM2-expressing GNPs”) is reported as “significantly inhibited the proliferation”. The “FLAG-Gli2 levels and processing (immunoblotting)” value (shortened to “FLAG-Gli2 levels and processing”) in assay [2] is “slightly elevated levels of full-length and repressor forms of FLAG-Gli2 under basal conditions and greater FLAG-Gli2 processing upon Shh stimulation”. In addition, the “PKA-dependent phosphorylation of CREB” value in assay [3] is on record as “does not induce the PKA-dependent phosphorylation”. The “Shh-induced fold change in Smo-CFP/Smo-YFP FRET” value in assay [4] is listed as “attenuated the fold-change in Smo-CFP/Smo-YFP FRET upon Shh stimulation”.
In the case of `N#CC(C(=O)c1ccc(Cl)cc1Cl)=C1NC(=O)c2ccccc2N1` [Compound 18], in assay [1], the “Cellular levels of cyclin D1 protein and Gli1 transcripts in GNPs” value is “reduced cellular levels of cyclin D1 protein and Gli1 transcripts”; the “Proliferation of SmoM2-expressing GNPs” value was “significantly inhibited the proliferation”. Further, the “FLAG-Gli2 levels and processing” value in assay [2] is “both decreased total FLAG-Gli2 levels and prevented Shh dependent stabilization of full-length FLAG-Gli2”. The “Basal Smo-CFP/Smo-YFP FRET levels” value in assay [4] was “decreased basal FRET levels”.
Take `OCCNc1nc(N2CCN(c3ccccc3)CC2)nc2ccccc12` [Compound 11]: the “Proliferation of SmoM2-expressing GNPs” value in assay [1] was “did not block GNP proliferation”. Moreover, the “FLAG-Gli2 levels and processing” value in assay [2] is given as “moderately increased total FLAG-Gli2 levels as well but did not alter proteolytic processing of the transcription factor”. For the same compound, the “Basal Smo-CFP/Smo-YFP FRET levels” value in assay [4] is on record as “decreased basal FRET levels”.
Regarding `COc1ccc(OC)c2c1cc1n2CC(C)(C(=O)NC2CCCCCCC2)N(CCN(C)C)C1=O` (centres unmarked) [Compound 17], in assay [1], the “Proliferation of SmoM2-expressing GNPs” value is given as “did not block GNP proliferation”. Moreover, in assay [2], the “FLAG-Gli2 levels and processing” value is “moderately increased total FLAG-Gli2 levels as well but did not alter proteolytic processing of the transcription factor”. The “PKA-dependent phosphorylation of CREB” value in assay [3] is reported as “significantly lower than that observed in forskolin-treated cells”. In addition, in assay [4], the “Basal Smo-CFP/Smo-YFP FRET levels” value is listed as “decreased basal FRET levels” and the “Shh-induced fold change in Smo-CFP/Smo-YFP FRET” value was “attenuated the fold-change in Smo-CFP/Smo-YFP FRET upon Shh stimulation”.

These data come from patent publication US8119640B2, “Hedgehog pathway antagonists methods of use” (The Board of Trustees of the Leland Stanford Junior …, priority 2008, dated 2012).
